Reference: article PMC6690782 (Bioorganic & medicinal chemistry letters, 2019)

Experiments:
[1] = target: LAT1 (Homo sapiens, UniProt Q01650); assay: cis-inhibition assay: inhibition of [3H]-gabapentin uptake into HEK-hLAT1 cells; format: cell-based; details: for fold decrease in potency relative to corresponding histidine/tryptophan analog: cis-inhibition IC50, 7d vs 16, 13 vs 22
[2] = cited from earlier work

Chain of LAT1 (Q01650 whole entry): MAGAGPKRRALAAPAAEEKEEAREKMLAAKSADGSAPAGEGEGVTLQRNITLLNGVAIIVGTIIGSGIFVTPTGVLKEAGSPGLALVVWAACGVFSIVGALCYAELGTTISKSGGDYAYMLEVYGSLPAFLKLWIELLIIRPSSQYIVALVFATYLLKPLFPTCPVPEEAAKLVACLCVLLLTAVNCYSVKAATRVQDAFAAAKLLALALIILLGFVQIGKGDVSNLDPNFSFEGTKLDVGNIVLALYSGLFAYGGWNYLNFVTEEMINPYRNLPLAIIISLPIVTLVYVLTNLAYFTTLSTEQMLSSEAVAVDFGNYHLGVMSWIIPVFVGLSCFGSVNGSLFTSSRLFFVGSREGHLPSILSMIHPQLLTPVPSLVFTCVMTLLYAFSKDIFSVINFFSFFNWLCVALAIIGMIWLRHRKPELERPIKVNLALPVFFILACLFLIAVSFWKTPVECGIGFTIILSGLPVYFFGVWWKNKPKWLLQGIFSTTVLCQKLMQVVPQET
Chain of LAT1 (P08195 102-630 partner): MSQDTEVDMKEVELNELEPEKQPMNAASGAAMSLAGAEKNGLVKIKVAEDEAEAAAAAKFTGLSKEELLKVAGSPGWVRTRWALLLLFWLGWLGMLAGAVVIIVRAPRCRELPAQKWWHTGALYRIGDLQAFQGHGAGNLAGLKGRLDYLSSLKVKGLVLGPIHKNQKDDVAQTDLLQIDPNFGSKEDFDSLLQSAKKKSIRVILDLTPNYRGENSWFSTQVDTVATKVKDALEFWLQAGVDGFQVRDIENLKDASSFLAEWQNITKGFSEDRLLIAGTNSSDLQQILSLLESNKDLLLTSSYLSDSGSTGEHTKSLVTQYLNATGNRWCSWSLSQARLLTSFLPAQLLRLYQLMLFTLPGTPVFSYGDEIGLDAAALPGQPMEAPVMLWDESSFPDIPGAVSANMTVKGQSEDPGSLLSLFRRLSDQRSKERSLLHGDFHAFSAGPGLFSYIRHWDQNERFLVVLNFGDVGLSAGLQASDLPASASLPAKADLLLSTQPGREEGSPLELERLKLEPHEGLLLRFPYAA

inhibition at 200 µM [1] | fold decrease in potency relative to corresponding histidine/tryptophan analog [1] | Compound | further results
74% | – | N[C@@H](Cc1cn(Cc2ccccc2)cn1)C(=O)O [Compound 17, reference compound] | –
– | 2 fold | N[C@@H](Cn1nnc2ccccc21)C(=O)O [Compound 13] | –
-19% | – | N[C@@H](Cc1cn(Cc2ccccc2)nn1)C(=O)O [Compound 11e] | –
– | – | c1c[nH]nn1 [1,2,3-triazole] | pKa of conjugate acid [2]: 1.15
– | 2 fold | Cc1cn(C[C@H](N)C(=O)O)nn1 [Compound 7d] | –
